Test [1] concerns the target RAC-alpha serine/threonine-protein kinase (Homo sapiens) (UniProt P31749). As to the kind of experiment: Her2 and AKT client protein degradation, late-stage follow-up, mechanism study, cell-based, Western blot, MCF7 (AID 686974). Conditions: 24 h, AKT, stronger effect = higher value. On the technique in general: In western blotting, separated proteins are transferred to a membrane and probed.

Test [2] deals with Receptor tyrosine-protein kinase erbB-2 (Homo sapiens) (UniProt P04626). The description is as above. The following applies: 24 h, stronger effect = higher value.
Receptor tyrosine-protein kinase erbB-2 (Homo sapiens), sequence (P04626 whole entry, looked up): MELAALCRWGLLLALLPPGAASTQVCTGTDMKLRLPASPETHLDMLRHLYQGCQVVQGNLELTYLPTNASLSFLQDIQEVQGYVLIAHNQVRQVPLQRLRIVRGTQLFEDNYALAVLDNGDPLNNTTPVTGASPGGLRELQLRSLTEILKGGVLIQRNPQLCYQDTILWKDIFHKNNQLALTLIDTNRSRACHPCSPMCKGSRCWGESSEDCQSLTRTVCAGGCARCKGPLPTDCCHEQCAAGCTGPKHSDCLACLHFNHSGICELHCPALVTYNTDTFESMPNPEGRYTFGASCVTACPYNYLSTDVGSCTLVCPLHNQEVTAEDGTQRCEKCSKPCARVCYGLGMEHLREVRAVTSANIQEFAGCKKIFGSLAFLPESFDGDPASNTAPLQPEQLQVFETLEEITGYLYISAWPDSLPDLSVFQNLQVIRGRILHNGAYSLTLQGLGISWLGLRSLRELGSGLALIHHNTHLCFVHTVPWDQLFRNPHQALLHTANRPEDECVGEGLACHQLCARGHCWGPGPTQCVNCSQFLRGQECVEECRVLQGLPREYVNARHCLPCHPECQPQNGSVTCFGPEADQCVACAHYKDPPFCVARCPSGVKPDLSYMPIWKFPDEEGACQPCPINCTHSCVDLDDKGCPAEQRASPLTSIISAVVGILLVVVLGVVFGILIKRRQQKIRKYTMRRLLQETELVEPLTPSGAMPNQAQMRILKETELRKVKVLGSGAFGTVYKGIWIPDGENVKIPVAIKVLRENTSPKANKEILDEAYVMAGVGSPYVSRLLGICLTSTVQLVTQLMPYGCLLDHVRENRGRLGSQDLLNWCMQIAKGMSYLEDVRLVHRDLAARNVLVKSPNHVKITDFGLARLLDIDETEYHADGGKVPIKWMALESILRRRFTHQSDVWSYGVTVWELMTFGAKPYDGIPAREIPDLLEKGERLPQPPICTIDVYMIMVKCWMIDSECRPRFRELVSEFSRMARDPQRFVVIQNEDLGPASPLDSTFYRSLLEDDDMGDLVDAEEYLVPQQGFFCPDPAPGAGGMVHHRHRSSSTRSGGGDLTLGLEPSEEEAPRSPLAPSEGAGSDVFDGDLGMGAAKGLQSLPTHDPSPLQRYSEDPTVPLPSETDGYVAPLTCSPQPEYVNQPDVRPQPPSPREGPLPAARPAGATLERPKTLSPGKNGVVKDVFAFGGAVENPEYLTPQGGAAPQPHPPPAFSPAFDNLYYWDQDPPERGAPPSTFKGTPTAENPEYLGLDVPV

The source made the active and inactive calls.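 Rule for the calls: active = client protein degradation above 50% for Her2 or AKT on Western blot; inactive = client protein degradation below 10%.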

RAC-alpha serine/threonine-protein kinase (Homo sapiens), sequence (P31749 whole entry, looked up): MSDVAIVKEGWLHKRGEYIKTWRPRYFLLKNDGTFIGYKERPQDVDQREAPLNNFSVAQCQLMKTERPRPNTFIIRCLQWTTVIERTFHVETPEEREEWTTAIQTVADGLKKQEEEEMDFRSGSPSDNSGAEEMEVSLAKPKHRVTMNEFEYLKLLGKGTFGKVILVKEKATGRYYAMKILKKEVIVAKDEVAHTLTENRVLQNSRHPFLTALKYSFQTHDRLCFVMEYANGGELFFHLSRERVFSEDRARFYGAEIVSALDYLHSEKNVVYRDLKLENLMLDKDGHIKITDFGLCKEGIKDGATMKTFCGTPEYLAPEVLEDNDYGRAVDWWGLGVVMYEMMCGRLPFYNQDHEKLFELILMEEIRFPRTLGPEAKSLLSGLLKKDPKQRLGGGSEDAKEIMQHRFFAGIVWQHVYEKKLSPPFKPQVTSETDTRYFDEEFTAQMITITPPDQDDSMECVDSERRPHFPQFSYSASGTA

For the compound `O=C(NCCc1ccc(F)cc1)c1coc(=O)c(Br)c1`, the client protein degradation in test [1] (high dose (five times the growth IC50) 10.5 µM, low dose (half the growth IC50) 1.1 µM) was < 10% (inactive); in test [2] (Her2, high dose (five times the growth IC50) 10.5 µM, low dose (half the growth IC50) 1.1 µM), > 50%.

On to `CC(C)CNC(=O)c1coc(=O)c(Br)c1`, for which the client protein degradation in test [1] (high dose (five times the growth IC50) 37.5 µM, low dose (half the growth IC50) 3.8 µM) is < 10% (inactive); in test [2] (Her2, high dose (five times the growth IC50) 37.5 µM, low dose (half the growth IC50) 3.8 µM) it was > 50%.

`Cc1cc(NC(=O)c2coc(=O)c(Br)c2)ccc1C(C)C`: the client protein degradation is < 10% (inactive) in test [1] (high dose (five times the growth IC50) 44.5 µM, low dose (half the growth IC50) 4.5 µM) and < 10% (inactive) in test [2] (Her2, high dose (five times the growth IC50) 44.5 µM, low dose (half the growth IC50) 4.5 µM).

Turning to `COc1ccc(NC(=O)c2ccc(NC(=O)c3coc(=O)c(Br)c3)cc2)cc1`, the client protein degradation in test [1] (high dose (five times the growth IC50) 60.5 µM, low dose (half the growth IC50) 6.1 µM) was < 10% (inactive); in test [2] (Her2, high dose (five times the growth IC50) 60.5 µM, low dose (half the growth IC50) 6.1 µM) it was < 10% (inactive).

As to `Cc1cccc(NC(=O)c2coc(=O)c(Br)c2)n1`, the client protein degradation in test [1] (high dose (five times the growth IC50) 136.5 µM, low dose (half the growth IC50) 13.7 µM) is < 10% (inactive); in test [2] (Her2, high dose (five times the growth IC50) 136.5 µM, low dose (half the growth IC50) 13.7 µM), > 50%.

Take `O=C(NCc1cccnc1)c1coc(=O)c(Br)c1`: the client protein degradation is < 10% (inactive) in test [1] (high dose (five times the growth IC50) 17.5 µM, low dose (half the growth IC50) 1.8 µM) and > 50% in test [2] (Her2, high dose (five times the growth IC50) 17.5 µM, low dose (half the growth IC50) 1.8 µM).

For `O=C(Nc1ccc(F)cc1)c1coc(=O)c(Br)c1`, the client protein degradation was > 50% in test [1] (high dose (five times the growth IC50) 17 µM, low dose (half the growth IC50) 1.7 µM) and > 50% in test [2] (Her2, high dose (five times the growth IC50) 17 µM, low dose (half the growth IC50) 1.7 µM).

`CCCCCCCCOc1ccc(NC(=O)c2coc(=O)c(Br)c2)cc1`: the client protein degradation in test [1] (high dose (five times the growth IC50) 64.5 µM, low dose (half the growth IC50) 6.5 µM) was < 10% (inactive); in test [2] (Her2, high dose (five times the growth IC50) 64.5 µM, low dose (half the growth IC50) 6.5 µM), > 50%.

Turning to `CC(NC(=O)c1coc(=O)c(Br)c1)C1C2CCC3CC(C2)CC31` (configuration not stated), the client protein degradation was < 10% (inactive) in test [1] (high dose (five times the growth IC50) 9 µM, low dose (half the growth IC50) 0.9 µM) and > 50% in test [2] (Her2, high dose (five times the growth IC50) 9 µM, low dose (half the growth IC50) 0.9 µM).

Regarding `COC(=O)c1ccc2nc(NC(=O)C3CC3)sc2c1`, the client protein degradation in test [1] (high dose (five times the growth IC50) 246 µM, low dose (half the growth IC50) 24.6 µM) is < 10% (inactive); in test [2] (Her2, high dose (five times the growth IC50) 246 µM, low dose (half the growth IC50) 24.6 µM), < 10% (inactive).

`O=C(NCc1ccco1)c1coc(=O)c(Br)c1`: the client protein degradation in test [1] (high dose (five times the growth IC50) 24 µM, low dose (half the growth IC50) 2.4 µM) was > 50%; in test [2] (Her2, high dose (five times the growth IC50) 24 µM, low dose (half the growth IC50) 2.4 µM), > 50%.

As for `CCOc1ccc(-c2nc(CN3CCCCC3CCn3cccn3)c(C)o2)cc1` (configuration not stated), the client protein degradation is < 10% (inactive) in test [1] (high dose (five times the growth IC50) 111 µM, low dose (half the growth IC50) 11.1 µM) and < 10% (inactive) in test [2] (Her2, high dose (five times the growth IC50) 111 µM, low dose (half the growth IC50) 11.1 µM).

For `O=C(Nc1ccccc1I)c1coc(=O)c(Br)c1`, the client protein degradation in test [1] (high dose (five times the growth IC50) 147 µM, low dose (half the growth IC50) 14.7 µM) was > 50%; in test [2] (Her2, high dose (five times the growth IC50) 147 µM, low dose (half the growth IC50) 14.7 µM), > 50%.

`CCCCOc1cccc(NC(=O)c2coc(=O)c(Br)c2)c1`: the client protein degradation was < 10% (inactive) in test [1] (high dose (five times the growth IC50) 114 µM, low dose (half the growth IC50) 11.4 µM) and > 50% in test [2] (Her2, high dose (five times the growth IC50) 114 µM, low dose (half the growth IC50) 11.4 µM).

Regarding `COc1ccc(NC(=O)c2coc(=O)c(Br)c2)cc1`, the client protein degradation is > 50% in test [1] (high dose (five times the growth IC50) 12 µM, low dose (half the growth IC50) 1.2 µM) and > 50% in test [2] (Her2, high dose (five times the growth IC50) 12 µM, low dose (half the growth IC50) 1.2 µM).

As to `CC(=O)c1ccc(NC(=O)c2coc(=O)c(Br)c2)cc1`, the client protein degradation is < 10% (inactive) in test [1] (high dose (five times the growth IC50) 53.5 µM, low dose (half the growth IC50) 5.4 µM) and > 50% in test [2] (Her2, high dose (five times the growth IC50) 53.5 µM, low dose (half the growth IC50) 5.4 µM).

For the origin of these results see PubChem BioAssay AID686974 (The Scripps Research Institute Molecular Screening Center, 2013).
